Test results taken from patent US20250255304A1, “HIGHLY TRA[…] CONTROLLING COMPOSITION” (ZM Crop Protection Corporation, priority 2022, published 2025).

Key:
Type in all cases: in vivo
[1] = test system: Coptotermes formosanus Shiraki; test: Test Example 3: extirpation test with dust formulation using simulated termite trails; details: active ingredient concentration 50%
[2] = test system: Coptotermes formosanus Shiraki; test: Test Example 2: primary transmission treatment effect
Method: (§1) A test agent solution containing 0.023 parts of dicloromezotiaz was prepared by adding 99.875 parts of water to 0.125 parts of the aqueous suspension composition shown in Formulation Example 1. As comparative examples, four types of commercially available neonicotinoid termite controlling agents and four types of slow-acting termite controlling agents shown in Table 2 were diluted with water at practical concentrations to prepare test agent solutions. The “agent concentration (%)” indicates the concentration of the active ingredient contained in each of the composition of the present invention and the termite controlling agents and the “test agent solution concentration (%)” indicates the concentration of the active ingredient in each of the prepared test agent solutions.
(§2) After 1.2 g of each of the test agent solutions of the example and the comparative examples diluted to a predetermined concentration and prepared was added to 4.8 g of soil, 6 g of the mixed soil was spread in a glass petri dish having a diameter of 50 mm and ten workers of Coptotermes formosanus Shiraki were released into the petri dish and exposed to the agent solution for 4 hours.

[3] = test system: Coptotermes formosanus Shiraki; test: Test Example 2: secondary transmission treatment effect
Method: as §1, §2

[4] = test system: Coptotermes formosanus Shiraki; test: Test Example 1: effect of agent on gypsum treated with test agent solution; details: dicloromezotiaz 0.023%, imidacloprid 0.1%, fipronil 0.03% test agent solution on gypsum
Method: A test agent solution containing 0.023 parts of dicloromezotiaz was prepared by adding 99.875 parts of water to 0.125 parts of the aqueous suspension composition shown in Formulation Example 1.
In a comparative example, an aqueous suspension composition prepared by adding an agent solution, wherein 99 parts of water was added to 1 part of a flowable containing 10.0 parts of imidacloprid and which contained 0.1 parts of imidacloprid and a drug solution, wherein 299 parts of water was added to 1 part of a flowable containing 9.1 parts of fipronil and which contained 0.03 parts of fipronil, uniformly mixing same was used as a test agent solution of a comparative example.
As the imidacloprid formulation and the fipronil formulation, commercially available termite controlling agents were used and diluted solutions at practical agent concentrations thereof were used as test agent solutions.
Gypsum was cured and spread in a glass petri dish having a diameter of 90 mm, 15 ml of each of the test agent solution of the example and the test agent solution of the comparative example was uniformly dropped on the entire surface of the gypsum. Thereafter, ten workers of Coptotermes formosanus Shiraki were released into the petri dish and the petri dish was covered and left to stand in a thermostatic chamber (25° C./relative humidity 60%).
The number of abnormal termites and the number of dead termites among the released termites (Coptotermes formosanus Shiraki) were observed every one hour from immediately after the release of the termites (Coptotermes formosanus Shiraki) until ten hours passed and the total number of the abnormal termite rate and the dead termite rate was calculated as the abnormal or dead termite rate (%) according to [Expression 1] below and the rates of expression of the effects of the respective agents were compared. Each test agent was prepared in one petri dish as one plot and the test was carried out in two replicates.

[5] = after 1 day, Table 4, dicloromezotiaz 0.023%, chlorfenapyr 0.11%, clothianidin 0.05%, dinotefuran 0.20%, thiamethoxam 0.10%, broflanilide 0.03% solution in soil
[6] = after 3 days, Table 4, dicloromezotiaz 0.023%, chlorfenapyr 0.11%, clothianidin 0.05%, dinotefuran 0.20%, thiamethoxam 0.10%, broflanilide 0.03% solution in soil
[7] = after 7 days, Table 4, dicloromezotiaz 0.023%, chlorfenapyr 0.11%, clothianidin 0.05%, dinotefuran 0.20%, thiamethoxam 0.10%, broflanilide 0.03% solution in soil
[8] = after 14 days, Table 4, dicloromezotiaz 0.023%, chlorfenapyr 0.11%, clothianidin 0.05%, dinotefuran 0.20%, thiamethoxam 0.10%, broflanilide 0.03% solution in soil
[9] = after 21 days, Table 4, dicloromezotiaz 0.023%, chlorfenapyr 0.11%, clothianidin 0.05%, dinotefuran 0.20%, thiamethoxam 0.10%, broflanilide 0.03% solution in soil
[10] = after 1 day, Table 6, dicloromezotiaz 0.023%, chlorfenapyr 0.11%, clothianidin 0.05%, dinotefuran 0.20%, thiamethoxam 0.10%, broflanilide 0.03% solution in soil
[11] = after 3 days, Table 6, dicloromezotiaz 0.023%, chlorfenapyr 0.11%, clothianidin 0.05%, dinotefuran 0.20%, thiamethoxam 0.10%, broflanilide 0.03% solution in soil
[12] = after 7 days, Table 6, dicloromezotiaz 0.023%, chlorfenapyr 0.11%, clothianidin 0.05%, dinotefuran 0.20%, thiamethoxam 0.10%, broflanilide 0.03% solution in soil
[13] = after 14 days, Table 6, dicloromezotiaz 0.023%, chlorfenapyr 0.11%, clothianidin 0.05%, dinotefuran 0.20%, thiamethoxam 0.10%, broflanilide 0.03% solution in soil
[14] = after 21 days, Table 6, dicloromezotiaz 0.023%, chlorfenapyr 0.11%, clothianidin 0.05%, dinotefuran 0.20%, thiamethoxam 0.10%, broflanilide 0.03% solution in soil
[15] = after 1 day, Table 3, dicloromezotiaz 0.023%, fipronil 0.03%, imidacloprid 0.10%, chlorantraniliprole 0.05% solution in soil
[16] = after 3 days, Table 3, dicloromezotiaz 0.023%, fipronil 0.03%, imidacloprid 0.10%, chlorantraniliprole 0.05% solution in soil
[17] = after 7 days, Table 3, dicloromezotiaz 0.023%, fipronil 0.03%, imidacloprid 0.10%, chlorantraniliprole 0.05% solution in soil
[18] = after 14 days, Table 3, dicloromezotiaz 0.023%, fipronil 0.03%, imidacloprid 0.10%, chlorantraniliprole 0.05% solution in soil
[19] = after 21 days, Table 3, dicloromezotiaz 0.023%, fipronil 0.03%, imidacloprid 0.10%, chlorantraniliprole 0.05% solution in soil
[20] = after 1 day, Table 5, dicloromezotiaz 0.023%, fipronil 0.03%, imidacloprid 0.10%, chlorantraniliprole 0.05% solution in soil
[21] = after 3 days, Table 5, dicloromezotiaz 0.023%, fipronil 0.03%, imidacloprid 0.10%, chlorantraniliprole 0.05% solution in soil
[22] = after 7 days, Table 5, dicloromezotiaz 0.023%, fipronil 0.03%, imidacloprid 0.10%, chlorantraniliprole 0.05% solution in soil
[23] = after 14 days, Table 5, dicloromezotiaz 0.023%, fipronil 0.03%, imidacloprid 0.10%, chlorantraniliprole 0.05% solution in soil
[24] = after 21 days, Table 5, dicloromezotiaz 0.023%, fipronil 0.03%, imidacloprid 0.10%, chlorantraniliprole 0.05% solution in soil

| Structure (SMILES) | Abnormal or dead termite rate (%) [2, 5] [%] | Abnormal or dead termite rate (%) [2, 6] [%] | Abnormal or dead termite rate (%) [2, 7] [%] | Abnormal or dead termite rate (%) [2, 8] [%] | Abnormal or dead termite rate (%) [2, 9] [%] | Abnormal or dead termite rate (%) [3, 10] [%] | Abnormal or dead termite rate (%) [3, 11] [%] | Abnormal or dead termite rate (%) [3, 12] [%] | Abnormal or dead termite rate (%) [3, 13] [%] | Abnormal or dead termite rate (%) [3, 14] [%] | other results |
| --- | --- | --- | --- | --- | --- | --- | --- | --- | --- | --- | --- |
| N#Cc1ccc(CC(=NNC(=O)Nc2ccc(OC(F)(F)F)cc2)c2cccc(C(F)(F)F)c2)cc1 (mixture of isomers) [Metaflumizone, metaflumizone] |  |  |  |  |  |  |  |  |  |  | Abnormal or dead termite rate (%) ([1]; 1 h): 0%; Abnormal or dead termite rate (%) ([1]; 2 h): 0%; Abnormal or dead termite rate (%) ([1]; 3 h): 0%; Abnormal or dead termite rate (%) ([1]; 4 h): 0%; Abnormal or dead termite rate (%) ([1]; 5 h): 0%; Abnormal or dead termite rate (%) ([1]; 6 h): 0%; Abnormal or dead termite rate (%) ([1]; 7 h): 0%; Abnormal or dead termite rate (%) ([1]; 1 day): 100%; Abnormal or dead termite rate (%) ([1]; 2 days): 100%; Abnormal or dead termite rate (%) ([1]; 3 days): 100%; Abnormal or dead termite rate (%) ([1]; 7 days): 100% |
| CN(C(=O)c1ccccc1)c1cccc(C(=O)Nc2c(Br)cc(C(F)(C(F)(F)F)C(F)(F)F)cc2C(F)(F)F)c1F [Broflanilide] | 100 | 73 | 48 | 53 | 56 | 2.2 | 0 | 3.3 | 5.6 | 6.7 |  |
| CNC(=O)c1cc(Cl)cc(C)c1NC(=O)c1cc(Br)nn1-c1ncccc1Cl [Chlorantraniliprole] |  |  |  |  |  |  |  |  |  |  | Abnormal or dead termite rate (%) [2, 15]: 98%; Abnormal or dead termite rate (%) [2, 16]: 100%; Abnormal or dead termite rate (%) [2, 17]: 85%; Abnormal or dead termite rate (%) [2, 18]: 80%; Abnormal or dead termite rate (%) [2, 19]: 85%; Abnormal or dead termite rate (%) [3, 20]: 10%; Abnormal or dead termite rate (%) [3, 21]: 2.2%; Abnormal or dead termite rate (%) [3, 22]: 1.1%; Abnormal or dead termite rate (%) [3, 23]: 2.2%; Abnormal or dead termite rate (%) [3, 24]: 7.8% |
| CCOCn1c(-c2ccc(Cl)cc2)c(C#N)c(Br)c1C(F)(F)F [Chlorfenapyr] | 89 | 80 | 89 | 100 | 100 | 0 | 0 | 3.3 | 7.8 | 31 |  |
| CN/C(=N\[N+](=O)[O-])NCc1cnc(Cl)s1 [Clothianidin] | 94 | 89 | 75 | 91 | 94 | 0 | 0 | 3.3 | 3.3 | 4.4 |  |
| CN/C(=N/CC1CCOC1)N[N+](=O)[O-] (stereo not shown) [Dinotefuran] | 93 | 94 | 96 | 98 | 99 | 24 | 18 | 16 | 18 | 22 |  |
| O=[N+]([O-])NC1=NCCN1Cc1ccc(Cl)nc1 [Imidacloprid] |  |  |  |  |  |  |  |  |  |  | Abnormal or dead termite rate (%) ([4]; time elapsed 1 h): 100%; Abnormal or dead termite rate (%) ([4]; time elapsed 2 h): 100%; Abnormal or dead termite rate (%) ([4]; time elapsed 3 h): 100%; Abnormal or dead termite rate (%) ([4]; time elapsed 4 h): 100%; Abnormal or dead termite rate (%) ([4]; time elapsed 5 h): 100%; Abnormal or dead termite rate (%) ([4]; time elapsed 6 h): 100%; Abnormal or dead termite rate (%) ([4]; time elapsed 7 h): 100%; Abnormal or dead termite rate (%) ([4]; time elapsed 8 h): 100%; Abnormal or dead termite rate (%) ([4]; time elapsed 9 h): 100%; Abnormal or dead termite rate (%) ([4]; time elapsed 10 h): 100%; Abnormal or dead termite rate (%) [2, 15]: 92%; Abnormal or dead termite rate (%) [2, 16]: 22%; Abnormal or dead termite rate (%) [2, 17]: 11%; Abnormal or dead termite rate (%) [2, 18]: 14%; Abnormal or dead termite rate (%) [2, 19]: 15%; Abnormal or dead termite rate (%) [3, 20]: 0%; Abnormal or dead termite rate (%) [3, 21]: 1.1%; Abnormal or dead termite rate (%) [3, 22]: 1.1%; Abnormal or dead termite rate (%) [3, 23]: 1.1%; Abnormal or dead termite rate (%) [3, 24]: 1.2% |
| CN1COCN(Cc2cnc(Cl)s2)/C1=N\[N+](=O)[O-] [Thiamethoxam] | 98 | 91 | 98 | 95 | 96 | 0 | 0 | 3.3 | 3.3 | 4.4 |  |
